Patent US11911413B2, “Methods and compositions for the treatment of pain and/or inflammation” (Proteobioactives Pty Limited, priority 2018, dated 2024)

What was measured:
[1] = 223 cases in the United States, FDA memorandum 2005; cited from earlier work
patients with knee OA = experiment: Double-blind comparator clinical trial Pentabrex vs celecoxib, knee OA (Example 7); type: in vivo, human
From the text: (§1) A prospective, dose ranging, double-blind, comparator clinical trial to evaluate the tolerability and efficacy of Pentabrex™, (Proteobioactives Pty Ltd, Balgowlah, NSW, Australia) compared to celecoxib, for the relief of symptoms in elderly patients with OA of the hand and knee conducted at the Subiaco Rheumatology Clinic, Subiaco, Perth, WA, Australia.
(§2) Thirty three male and female patients with symptomatic hand or knee OA were obtained from referrals sent by general medical practitioners located in Perth (Western Australia) suburbs. […] To be included in the clinical trial, patients had to be 50 years of age or older and have an OA grade of 3-4 (Kellgren J H, Lawrence J S. Radiological assessment of osteoarthrosis. Annals Rheumatic Dis.1957; 16:494-502) that had been symptomatic for at least 6 months prior to their inclusion. If a patient had pain in both knees or both hands, the more painful knee or hand was the joint used for assessment. If patients had both hand and knee OA each most painful joint was assessed separately.
(§3) Patients with rheumatoid arthritis or any other rheumatic condition that required the continuous administration of a second line rheumatic agent such as methotrexate, steroid or cytokine antagonist, had current bleeding diathesis or were receiving treatment with blood thinners (such as warfarin), or had any significant medical conditions involving the liver, kidney, or their motor or nervous systems were excluded from the trial.
(§4) Although patients were requested not to consume additional analgesics or NSAIDs over the duration of the study, if they found this to be too difficult because of the unacceptable level of pain they experienced, they were required to document the drugs and quantities they used for relief of pain in a six week daily diary that supplied with the clinical trial test package manufactured by the compounding chemist (Kingsway, Brookvale NSW 2100, Australia). Failure to complete the daily dairies over the duration of the 6 week trial and return the used blister pack to the examining clinician at the final consultation would be taken as to non-compliance with the trial protocol. The diary requirement was included as part of patient assessment for the duration of the trial because of the known non-compliance of patients taking oral medications over extended periods of time (van Berge Henegouwen MTH, van Driel H F, Kasteleijn-Nolst DGA. A patient diary as a tool to improve medicine compliance. Pharm World Sci. 1999; 21: 21-24, Farmer K C, Methods for measuring and monitoring medication regimen adherence in clinical trials and clinical practice. Clinical […]
For patients with OA of the knee joints their VAS pain scores were determined for their pain at rest, pain on walking and early morning stiffness. […]

[2] = tested on: patients with OA of the hand and knee; experiment: Double-blind comparator clinical trial, hand and knee OA combined (Example 7); type: in vivo, human; conditions: daily for 6 weeks
From the text: as §1, §2, §4
The same clinical parameters that were determined for all patients at baseline were assessed at the final examination six weeks later. The patient's diaries and blister packs returned were also examined and the number of supplementary analgesics they consumed was recorded. Any adverse side effects noted over the duration of the trial were also recorded. […]

patients with hand OA = experiment: Double-blind comparator clinical trial Pentabrex vs celecoxib, hand OA (Example 7); type: in vivo, human
From the text: as §1, §2, §3, §4
At the commencement of the trial details of the patient's age, height, weight, location of the most painful joints, duration of symptoms and grade of OA were recorded. […]

[3] = tested on: leukocytes isolated from the blood of these patients; conditions: seven days after NaPPS administration, cited from earlier work
[4] = tested on: postmenopausal women with mild to moderate osteoarthritis; conditions: cited from earlier work
[5] = tested on: Japanese patients with mild knee OA; conditions: weekly subcutaneous 2 mg/kg NaPPS over 6 weeks; assessed to 52 weeks; cited from earlier work
[6] = single oral dose [3H]PPS with 300 or 450 mg un-labelled PPS; healthy female subjects; cited from earlier work
[7] = tested on: elderly subjects with high blood viscosity and filterability; conditions: 15 elderly subjects; IM 50 mg NaPPS twice daily for a week; cited from earlier work
[8] = tested on: patients with symptomatic knee OA; conditions: NaPPS 3 mg/kg, 4 weekly IM injections, cited from earlier work
[9] = tested on: patients with bone marrow lesions (oedema) diagnosed by MRI; conditions: PPS administered systemically (IM or SC); cited from earlier work
[10] = Pentabrex 350 mg or celecoxib 175 mg daily for 6 weeks
[11] = Pentabrex n = 5, celecoxib n = 9, daily for 6 weeks
[12] = Pentabrex n = 5, celecoxib n = 4, daily for 6 weeks

## CS(=O)(=O)c1ccc(C2=C(c3ccccc3)C(=O)OC2)cc1 [rofecoxib, 4-(4-methylsulfonylphenyl)-3-phenyl-5H-furan-2-one]
[1]
  thrombotic or embolic events associated with the drug: 99 cases

## Cc1ccc(-c2cc(C(F)(F)F)nn2-c2ccc(S(N)(=O)=O)cc2)cc1 [Celecoxib, 4-[5-(4-methylphenyl)-3-(trifluoromethyl)pyrazol-1-yl] benzene sulfonamide]
Patients with knee OA; [10]
  Negative response, % of patients: 23.33%
  Positive response, % of patients: 77.77%
Patients with knee OA; [11]
  Negative response, number of patients: 2
  Positive response, number of patients: 7
[2]
  Negative response, % of patients: 38.46%
  Negative response, number of patients: 5
  Positive response, % of patients: 61.54%
  Positive response, number of patients: 8
[1]
  thrombotic or embolic events associated with the drug: 102 cases
Patients with hand OA; [10]
  Negative response, % of patients: 75%
  Positive response, % of patients: 25%
Patients with hand OA; [12]
  Negative response, number of patients: 3
  Positive response, number of patients: 1

## CCc1cccc2c3c([nH]c12)C(CC)(CC(=O)O)OCC3 (stereo not drawn) [etodolac]
[1]
  thrombotic or embolic events associated with the drug: 22 cases

## [2R,3R,4S,5R)-2-hydroxy-5-[(2S,3R,4S,5R)-5-hydroxy-3,4-disulfo-oxyoxan-2-yl]oxy-3-sulfooxyoxan-4-yl] hydrogen sulfate [NaPPS]
[3]; compared to leukocytes collected before
  concentrations of arachidonic acid-derived lipoxygenase (LOX) metabolites released from the cells: significantly decreased
[3]; non-stimulated leukocytes
  prostaglandin metabolites generated by the COX pathways: increased
[4]; 3 mg/kg NaPPS IM, 24 hours after administration
  peripheral blood mononuclear cell procoagulant activity (MPA): significantly reduced to within the normal range
[4]; 3 mg/kg NaPPS IM, between 2 and 4 hours after administration
  Plasma concentrations of lipoprotein lipase, hepatolipase, and superoxide dismutase: significantly elevated
[4]; 4 weekly IM injections of 3 mg/kg, for up to 12 weeks after the last injection
  patients reporting significant clinical improvement of their symptoms: 11
[5]
  joint swelling, knee flexion, pain while walking and stair climbing: improved significantly
[6]
  administered dose excreted in the faeces as intact PPS: 84%
  administered dose excreted in urine in a depolymerized form: 6%
[7]
  blood viscosity and filterability: significant reduction
[8]
  pain on walking and other physical activities, such as stair climbing: significantly improved
[8]; maintained for 20 weeks after cessation
  joint pain at rest relative to placebo controls: significantly improvement
[9]
  bone marrow lesions (oedema) and accompanying pain: resolved the bone marrow lesions (oedema) and accompanying pain
